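Assay format: 96-well plates, 48-hour exposure. Abbreviation: GI50, concentration required for 50% inhibition of growth.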 Calls of active or inactive are those of the source. No stated cut-off is given here; in the data, active = GI50 up to about 1.1 µM and inactive = higher.
Assays:
Assay in all cases: DTP human tumour cell line panel, 48 h
786-0 = test system: 786-0
A549 = test system: A549
ACHN = test system: ACHN
CAKI-1 = test system: CAKI-1
CCRF-CEM = test system: CCRF-CEM
COLO 205 = test system: COLO 205
DLD-1 = test system: DLD-1
DMS-114 = test system: DMS-114
DMS-273 = test system: DMS-273
EKVX = test system: EKVX
HCT-116 = test system: HCT-116
HCT-15 = test system: HCT-15
HL-60 = test system: HL-60
HOP-62 = test system: HOP-62
HOP-92 = test system: HOP-92
HT-29 = test system: HT-29
IGROV-1 = test system: IGROV-1
K562 = test system: K562
KM12 = test system: KM12
LOX IMVI = test system: LOX IMVI
LXFL 529 = test system: LXFL 529
M14 = test system: M14
M19-MEL = test system: M19-MEL
MOLT-4 = test system: MOLT-4
Malme-3M = test system: Malme-3M
NCI-H226 = test system: NCI-H226
NCI-H23 = test system: NCI-H23
NCI-H460 = test system: NCI-H460
NCI-H522 = test system: NCI-H522
OVCAR-3 = test system: OVCAR-3
OVCAR-4 = test system: OVCAR-4
OVCAR-5 = test system: OVCAR-5
OVCAR-8 = test system: OVCAR-8
RPMI-8226 = test system: RPMI-8226
RXF 393 = test system: RXF 393
SF-268 = test system: SF-268
SF-295 = test system: SF-295
SF-539 = test system: SF-539
SK-MEL-28 = test system: SK-MEL-28
SK-MEL-2 = test system: SK-MEL-2
SK-MEL-5 = test system: SK-MEL-5
SK-OV-3 = test system: SK-OV-3
SN12C = test system: SN12C
SNB-75 = test system: SNB-75
SNB-78 = test system: SNB-78
SR = test system: SR
SW-620 = test system: SW-620
TK-10 = test system: TK-10
U-251 = test system: U-251
UACC-62 = test system: UACC-62
UO-31 = test system: UO-31
HCC 2998 = test system: HCC 2998
KM-20L2 = test system: KM-20L2
SNB-19 = test system: SNB-19
UACC-257 = test system: UACC-257

Cc1ccc2c(c1)CN1c3ccc(C)cc3CN2C1c1ccccc1O
GI50 (786-0): 42.5 µM (inactive)
GI50 (A549): > 100 µM (inactive)
GI50 (ACHN): 40.3 µM (inactive)
GI50 (CAKI-1): > 100 µM (inactive)
GI50 (CCRF-CEM): 47.9 µM (inactive)
GI50 (COLO 205): 78.7 µM (inactive)
GI50 (DLD-1): 26.5 µM (inactive)
GI50 (DMS-114): 16.8 µM (inactive)
GI50 (DMS-273): 13.5 µM (inactive)
GI50 (EKVX): 7.19 µM (inactive)
GI50 (HCT-116): 18.7 µM (inactive)
GI50 (HCT-15): 23.6 µM
GI50 (HL-60): 14.8 µM (inactive)
GI50 (HOP-62): 85.9 µM (inactive)
GI50 (HOP-92): 15.2 µM (inactive)
GI50 (HT-29): 42 µM (inactive)
GI50 (IGROV-1): 79.4 µM (inactive)
GI50 (K562): 34.7 µM (inactive)
GI50 (KM12): 43.3 µM (inactive)
GI50 (LOX IMVI): 58.5 µM (inactive)
GI50 (LXFL 529): 48.8 µM (inactive)
GI50 (M14): > 100 µM (inactive)
GI50 (M19-MEL): 41.1 µM (inactive)
GI50 (MOLT-4): 35.2 µM (inactive)
GI50 (Malme-3M): > 100 µM (inactive)
GI50 (NCI-H226): 49.5 µM (inactive)
GI50 (NCI-H23): 27.3 µM (inactive)
GI50 (NCI-H460): 33.9 µM (inactive)
GI50 (NCI-H522): 65.6 µM (inactive)
GI50 (OVCAR-3): 21.5 µM (inactive)
GI50 (OVCAR-4): 57 µM (inactive)
GI50 (OVCAR-5): 18.6 µM (inactive)
GI50 (OVCAR-8): > 100 µM (inactive)
GI50 (RPMI-8226): 19.5 µM (inactive)
GI50 (RXF 393): 7.18 µM (inactive)
GI50 (SF-268): 81.7 µM (inactive)
GI50 (SF-295): 46.8 µM (inactive)
GI50 (SF-539): 49 µM (inactive)
GI50 (SK-MEL-28): 37.5 µM (inactive)
GI50 (SK-MEL-2): 48.9 µM (inactive)
GI50 (SK-MEL-5): 13.7 µM (inactive)
GI50 (SK-OV-3): > 100 µM (inactive)
GI50 (SN12C): 29.9 µM (inactive)
GI50 (SNB-75): 0.667 µM (active)
GI50 (SNB-78): 67.1 µM (inactive)
GI50 (SR): 11.7 µM (inactive)
GI50 (SW-620): 61.9 µM (inactive)
GI50 (TK-10): 26.2 µM (inactive)
GI50 (U-251): 38.5 µM (inactive)
GI50 (UACC-62): 25.1 µM (inactive)
GI50 (UO-31): 24.9 µM (inactive)

O=c1[nH]c(-c2ccc([N+](=O)[O-])cc2)nc2ccc(Cl)cc12
GI50 (786-0): > 100 µM (inactive)
GI50 (A549): > 100 µM (inactive)
GI50 (ACHN): > 100 µM (inactive)
GI50 (COLO 205): > 100 µM (inactive)
GI50 (DMS-273): > 100 µM (inactive)
GI50 (EKVX): > 100 µM (inactive)
GI50 (HCC 2998): > 100 µM (inactive)
GI50 (HCT-116): > 100 µM (inactive)
GI50 (HCT-15): 94.4 µM
GI50 (HOP-92): 26.8 µM (inactive)
GI50 (HT-29): > 100 µM (inactive)
GI50 (IGROV-1): 55.3 µM (inactive)
GI50 (K562): 17.9 µM (inactive)
GI50 (KM-20L2): > 100 µM (inactive)
GI50 (KM12): > 100 µM (inactive)
GI50 (LXFL 529): 44.2 µM (inactive)
GI50 (M19-MEL): > 100 µM (inactive)
GI50 (MOLT-4): 23.6 µM (inactive)
GI50 (Malme-3M): > 100 µM (inactive)
GI50 (NCI-H226): > 10 µM (inactive)
GI50 (NCI-H23): > 100 µM (inactive)
GI50 (OVCAR-5): > 100 µM (inactive)
GI50 (OVCAR-8): > 100 µM (inactive)
GI50 (RPMI-8226): 47.1 µM (inactive)
GI50 (RXF 393): 78.3 µM (inactive)
GI50 (SF-268): > 100 µM (inactive)
GI50 (SF-295): > 100 µM (inactive)
GI50 (SF-539): > 100 µM (inactive)
GI50 (SK-MEL-28): > 100 µM (inactive)
GI50 (SK-MEL-2): > 100 µM (inactive)
GI50 (SK-MEL-5): > 100 µM (inactive)
GI50 (SK-OV-3): 77.3 µM (inactive)
GI50 (SN12C): > 100 µM (inactive)
GI50 (SNB-19): 66.2 µM (inactive)
GI50 (SNB-75): 57.5 µM (inactive)
GI50 (SNB-78): > 100 µM (inactive)
GI50 (SW-620): > 100 µM (inactive)
GI50 (TK-10): 51.8 µM (inactive)
GI50 (U-251): 54.6 µM (inactive)
GI50 (UACC-257): > 100 µM (inactive)
GI50 (UACC-62): > 100 µM (inactive)
GI50 (UO-31): > 100 µM (inactive)

From ChEMBL document CHEMBL1201862, “PubChem BioAssay data set” (2004)
